Paper PMC6316490, “Synthesis and Antiproliferative Activity of Marine Bromotyrosine Purpurealidin I and Its Derivatives” (Marine Drugs, 2018)

Tests used:
[1] = system: human malignant melanoma cell line (A-375); test: Cytotoxicity in A-375 cells, CellTiter-Glo ATP viability, 48-h incubation; assay type: cell-based; settings: for cytotoxicity at 50 µM / CC50: Homo sapiens, 48 h; for cytotoxicity at 50 µM / Cytotoxic activity in A-375 cells (in words) / CC50: A-375 cells; for cytotoxicity at 50 µM: read-out: Primary Test Result (Cytotoxicity % at 50 µM in A-375 Cells); for Cytotoxic activity in A-375 cells (in words): SAR discussion; for CC50: A-375, 48 h, cytotoxic concentration that caused death of 50% cells; for Selectivity Index: ratio of CC50 in Hs27 fibroblasts over CC50 in A-375 melanoma cells
Description: (§1) Human malignant melanoma cell line A-375 was kindly provided by Prof. Marikki Laiho (University of Helsinki, Finland) and Hs27 human skin fibroblast cell line was kindly provided by Dr. Carmen Escobedo-Lucea (University of Helsinki, Finland). The cells were maintained in Glutamax high glucose Dulbecco’s Modified Eagle’s Medium (DMEM, Gibco), supplemented with 10% fetal bovine serum (FBS, Gibco), at 37 °C, 5% CO2.
(§2) The cells were seeded to white frame and clear bottom 96-well plates (Perkin Elmer) at the density of 10,000 cells/well for A-375 cell line and 7500 cells/well for Hs27 cell line. The cells were grown at 37 °C, 5% CO2 until they reached 70–80% confluence (approximately 24 h). Stock solutions of test compounds and a positive control (camptothecin, Sigma-Aldrich, Saint Louis, MO, USA) were prepared in DMSO and diluted into assay medium (growth medium with 5% FBS) to the final concentration. Final DMSO concentration was 0.5% in all samples. The culture medium was removed from the plate and compounds added, 200 µL/well. After 48-h incubation, the amount of ATP, which is directly proportional to the number of cells present in culture, was quantified using CellTiter-Glo® Luminescent Cell Viability kit (Promega, Madison, WI, USA), according to manufacturer’s instructions.
(§3) Origin Graphing and Analysis, version 8.6 (OriginLab, Northampton, MA, USA) was used for determination of CC50 values. The cancer cell selectivity index (SI) was calculated as a ratio of CC50 values between Hs27 fibroblasts and A-375 melanoma cells.

[2] = system: human cervical carcinoma HeLa cells; parameters: method as in doi:10.1016/j.tetlet.2010.07.016; settings: cited from earlier work
[3] = Cytotoxicity in Hs27 cells, CellTiter-Glo ATP viability, 48-h incubation; assay type: cell-based; settings: human, Hs27 normal skin fibroblast cells, Hs27 normal fibroblasts
Description: as §1, §2, §3

[4] = system: A2780S, A2780CP (SCP5), A549, MCF7, U251MG cells and NIH3T3; parameters: method as in PMID 26711149; settings: cited from earlier work

Which results are given for `COc1ccc(C/C(=N\O)C(=O)Nc2ccccn2)cc1Cl` [Compound 45, (E)-3-(3-Chloro-4-methoxyphenyl)-2-(hydroxyimino)-N-(pyridin-2-yl)propanamide]?
cytotoxicity at 50 µM [1]: 4%; Cytotoxic activity in A-375 cells (in words) [1]: inactive

What does the source list for `COc1ccc(C/C(=N\O)C(=O)Nc2ccc(OC)c(Br)c2)cc1Br` [Compound 41, (E)-N,3-Bis(3-bromo-4-methoxyphenyl)-2-(hydroxyimino)propanamide]?
CC50 [1]: 19.8 µM; cytotoxicity at 50 µM [1]: 99.2%; Cytotoxic activity in A-375 cells (in words) [1]: showed activity

Which cytotoxicity at 50 µM [1] does the source give for `COc1c(Br)cc(C/C(=N\O)C(=O)Nc2ccncc2)cc1Br` [Compound 38, (E)-3-(3,5-Dibromo-4-methoxyphenyl)2-(hydroxyimino)-N-(pyridin-4-yl)propanamide] here?
The cytotoxicity at 50 µM was 71.1%.

With `COc1c(Br)cc(C/C(=N\O)C(=O)NCCc2cc(Br)c(O)c(Br)c2)cc1Br` [Compound 4] as the molecule, how does the “Cytotoxic effect on HeLa cells (in words)” value [2] read?
The value was “comparably strong cytotoxic effect”.

Which results are given for `COc1ccc(NC(=O)/C(Cc2cc(Br)c(OC)c(Br)c2)=N/O)cc1Cl` [Compound 33, (E)-N-(3-Chloro-4-methoxyphenyl)-3-(3,5-dibromo-4-methoxyphenyl)-2-(hydroxyimino)propanamide]?
CC50 [1]: 13.5 µM; cytotoxicity at 50 µM [1]: 98.9%; Selectivity Index [1]: 2.0; CC50 at 48 h [3]: 26.4 µM

Which CC50 [1] does the source give for `COc1c(Br)cc(C/C(=N\O)C(=O)Nc2ccc(Cl)c(Cl)c2)cc1Br` [Compound 30, (E)-3-(3,5-Dibromo-4-methoxyphenyl)-N-(3,4-dichlorophenyl)-2-(hydroxyimino)propanamide] here?
The CC50 was 13.1 µM.

And the cytotoxicity at 50 µM [1]?
The cytotoxicity at 50 µM was 101%.

What about the “Selectivity Index” value [1] of the same molecule?
The value was 1.2.

And the CC50 at 48 h [3]?
The CC50 at 48 h was 15.2 µM.

What about the melting point of the same molecule?
Its melting point is 198 °C (dec.).

For `CC[C@@]1(O)C(=O)OCc2c1cc1n(c2=O)Cc2cc3ccccc3nc2-1` [Camptothecin, reference compound], which CC50 [1] is on record?
The CC50 was 0.06 µM.

And the cytotoxicity at 50 µM [1]?
The cytotoxicity at 50 µM was 94.7%.

What about the “Selectivity Index” value [1] of the same molecule?
The value was 92.3.

What about the CC50 at 48 h [3] of the same molecule?
Its CC50 at 48 h is 5.54 µM.

For `COc1ccc(C/C(=N\O)C(=O)Nc2ccccn2)cc1` [Compound 44, (E)-2-(Hydroxyimino)-3-(4-methoxyphenyl)-N-(pyridin-2-yl)propanamide], which cytotoxicity at 50 µM [1] is on record?
Its cytotoxicity at 50 µM is 0.4%.

And the “Cytotoxic activity in A-375 cells (in words)” value [1]?
The value was “inactive”.

For `COc1ccc(NC(=O)/C(Cc2cc(Br)c(OC)c(Br)c2)=N/O)cc1Br` [Compound 34, (E)-N-(3-Bromo-4-methoxyphenyl)-3-(3,5-dibromo-4-methoxyphenyl)-2-(hydroxyimino)propanamide], which CC50 [1] is on record?
Its CC50 is 16.2 µM.

And the cytotoxicity at 50 µM [1]?
The cytotoxicity at 50 µM was 100%.

And the “Selectivity Index” value [1]?
The value was 1.4.

What about the CC50 at 48 h [3] of the same molecule?
The CC50 at 48 h was 22.5 µM.

With `COc1c(Br)cc(C/C(=N\O)C(=O)NCCc2cc(Br)c(OCCCN)c(Br)c2)cc1Br` [Compound 3] as the molecule, how does the “Cytotoxic effect on HeLa cells (in words)” value [2] read?
Its value is “comparably strong cytotoxic effect”.

What does the source list for `COc1c(Br)cc(C/C(=N\O)C(=O)NCc2cccnc2)cc1Br` [Compound 39, (E)-3-(3,5-Dibromo-4-methoxyphenyl)-2-(hydroxyimino)-N-(pyridin-3-ylmethyl)propanamide]?
CC50 [1]: 22.1 µM; cytotoxicity at 50 µM [1]: 93.2%; Cytotoxic activity in A-375 cells (in words) [1]: retained the activity

Which “Selectivity between A-375 and Hs27 (in words)” value ([1]; A-375 vs Hs27) does the source give for `CNCCCOc1c(Br)cc(CCNC(=O)/C(Cc2cc(Br)c(OC)c(Br)c2)=N/O)cc1Br` [Compound 1, (E)-N-[3,5-Dibromo-4-[3-(methylamino)propoxy]phenethyl]-3-(3,5-dibromo-4-methoxyphenyl)-2-(hydroxyimino)propenamide] here?
Its value is “no selectivity”.

What about the CC50 [1] of the same molecule?
Its CC50 is 4.3 µM.

And the cytotoxicity at 50 µM [1]?
The cytotoxicity at 50 µM was 97.9%.

What about the “Selectivity Index” value [1] of the same molecule?
The value was 1.2.

And the CC50 at 48 h [3]?
Its CC50 at 48 h is 5.2 µM.

And the “Cytotoxicity against various cancer cell lines and non-cancer NIH3T3 (in words)” value [4]?
Its value is “cytotoxic”.

With `COc1c(Br)cc(C/C(=N\O)C(=O)Nc2ccc(Cl)c(C(F)(F)F)c2)cc1Br` [Compound 32, (E)-N-[4-Chloro-3-(trifluoromethyl)phenyl]-3-(3,5-dibromo-4-methoxyphenyl)-2-(hydroxyimino) propanamide] as the molecule, how does the CC50 [1] read?
The CC50 was 10.3 µM.

What about the cytotoxicity at 50 µM [1] of the same molecule?
The cytotoxicity at 50 µM was 99.8%.

What about the “Selectivity Index” value [1] of the same molecule?
The value was 1.2.

What about the CC50 at 48 h [3] of the same molecule?
Its CC50 at 48 h is 12 µM.

Which CC50 [1] does the source give for `COc1c(Br)cc(C/C(=N\O)C(=O)NCCc2cc(Br)c(OCCCN(C)C)c(Br)c2)cc1Br` [Compound 29, (E)-N-[3,5-Dibromo-4-[3-(dimethylamino)propoxy]phenethyl]-3-(3,5-dibromo-4-methoxyphenyl)-2-(hydroxyimino)propanamide] here?
Its CC50 is 6.3 µM.

And the cytotoxicity at 50 µM [1]?
The cytotoxicity at 50 µM was 99.9%.

And the “Selectivity Index” value [1]?
Its value is 0.7.

What about the CC50 at 48 h [3] of the same molecule?
Its CC50 at 48 h is 4.5 µM.

Which CC50 [1] does the source give for `COc1c(Br)cc(C/C(=N\O)C(=O)Nc2ccc(N(C)C)cc2)cc1Br` [Compound 40, (E)-3-(3,5-Dibromo-4-methoxyphenyl)-N-[4-(dimethylamino)phenyl]-2-(hydroxyimino)propanamide] here?
Its CC50 is 27.8 µM.

What about the cytotoxicity at 50 µM [1] of the same molecule?
The cytotoxicity at 50 µM was 99.1%.

Which CC50 [1] does the source give for `COc1c(Br)cc(C/C(=N\O)C(=O)Nc2ccccn2)cc1Br` [Compound 36, (E)-3-(3,5-Dibromo-4-methoxyphenyl)-2-(hydroxyimino)-N-(pyridin-2-yl)propanamide] here?
Its CC50 is 4.7 µM.

What about the cytotoxicity at 50 µM [1] of the same molecule?
Its cytotoxicity at 50 µM is 84.7%.

And the “Selectivity Index” value [1]?
The value was 4.1.

What about the CC50 at 48 h [3] of the same molecule?
Its CC50 at 48 h is 19.4 µM.

What about the melting point of the same molecule?
The melting point was 192 to 196 °C (dec.).

Which cytotoxicity at 50 µM [1] does the source give for `COc1ccc(C/C(=N\O)C(=O)NCc2ccc(Cl)c(Cl)c2)cc1` [Compound 43, (E)-N-(3,4-Dichlorobenzyl)-2-(hydroxyimino)-3-(4-methoxyphenyl)propanamide] here?
Its cytotoxicity at 50 µM is 21.5%.

With `COc1c(Br)cc(C/C(=N\O)C(=O)Nc2cc(Cl)cc(Cl)c2)cc1Br` [Compound 35, (E)-3-(3,5-Dibromo-4-methxyphenyl)-N-(3,5-dichlorophenyl)-2-(hydroxyimino)propanamide] as the molecule, how does the CC50 [1] read?
Its CC50 is 9.6 µM.

And the cytotoxicity at 50 µM [1]?
The cytotoxicity at 50 µM was 101%.

What about the “Selectivity Index” value [1] of the same molecule?
The value was 1.3.

What about the CC50 at 48 h [3] of the same molecule?
Its CC50 at 48 h is 12.2 µM.

With `COc1c(Br)cc(C/C(=N\O)C(=O)NCc2ccc(Cl)c(Cl)c2)cc1Br` [Compound 31, (E)-3-(3,5-Dibromo-4-methoxyphenyl)-N-(3,4-dichlorobenzyl)-2-(hydroxyimino)propanamide] as the molecule, how does the CC50 [1] read?
The CC50 was 12.4 µM.

What about the cytotoxicity at 50 µM [1] of the same molecule?
Its cytotoxicity at 50 µM is 99.7%.

What about the “Selectivity Index” value [1] of the same molecule?
The value was 1.8.

And the CC50 at 48 h [3]?
The CC50 at 48 h was 22.3 µM.

With `COc1ccc(C/C(=N\O)C(=O)Nc2ccccn2)cc1Br` [Compound 42, (E)-3-(3-Bromo-4-methoxyphenyl)-2-(hydroxyimino)-N-(pyridin-2-yl)propanamide] as the molecule, how does the cytotoxicity at 50 µM [1] read?
The cytotoxicity at 50 µM was 2.7%.

And the “Cytotoxic activity in A-375 cells (in words)” value [1]?
Its value is “inactive”.

And the melting point?
Its melting point is 214 to 217 °C (dec.).

For `COc1c(Br)cc(C/C(=N\O)C(=O)Nc2cccnc2)cc1Br` [Compound 37, (E)-3-(3,5-Dibromo-4-methoxyphenyl)-2-(hydroxyimino)-N-(pyridin-3-yl)propanamide], which CC50 [1] is on record?
The CC50 was 26.4 µM.

What about the cytotoxicity at 50 µM [1] of the same molecule?
The cytotoxicity at 50 µM was 83.5%.
